# Data taken from patent US6207656A, “Vitamin D analogues and their neuronal effects” (Cephalon, Inc., priority 1998, dated 2001).
# Entries after “also recorded” stand apart in the source; their conditions may differ.
# How the values were obtained:
# [1] = tested on: acrylamide-induced peripheral neuropathy in rats; assay: Acrylamide-induced peripheral neuropathy, landing foot spread; format: in vivo, rat
# Experimental: Peripheral neuropathy was induced in rats by the administration of the neurotoxin acrylamide, 50 mg/kg, IP, 3×/week. The acrylamide treatment occurred during the first three weeks of the experiment. After acrylamide was discontinued, the animals were allowed to recover for an additional 3-5 weeks. The ability of Compound (A) or Compound (B) to either slow the onset of peripheral neuropathy, reduce the severity of the peripheral neuropathy or enhance the recovery from peripheral neuropathy was determined. The compounds were administered either orally (Compound (A)) or via subcutaneous Alzet mini-pumps (I month model)(Compounds (A) and (B)) beginning 3 days prior to the first dose of acrylamide. Compound (A) was administered orally at doses of 0.3, 1.0 and 3.0 μg/kg/day and by mini-pump at doses of 10, 55, 100, 330 and 550 ng/day. Compound (B) was administered by mini-pump at doses of 10, 33, 100, 330 and 1000 ng/day. These dose ranges were selected to limit toxicity and to bracket the dose range used in fimbria fornix lesion experiments. The mini-pumps were replaced at the end of the fourth week so that the test compound was on board for the duration of the experiment. In FIG. 11B, the data from FIG. 11A was averaged.
# [2] = Serum calcium in fimbria fornix lesioned rats; format: in vivo, Sprague Dawley rats; conditions: oral gavage daily 14 days; data not shown
# Experimental: For the fimbria fornix lesion studies, serum calcium was determined by the following method. Sprague Dawley rats (200-300 g) were dosed as described below. Blood was collected from the animals after sacrifice and allowed to clot at room temperature for 3-10 minutes; cells were pelleted in a clinical centrifuge.
# (§1) The hippocampal ChAT activity is expressed as a percentage of the hippocampal ChAT activity of the […] control side (i.e., lesion control) in FIGS. 4 to 8.
# hippocampal ChAT = assay: Fimbria fornix lesion model, hippocampal ChAT activity; format: in vivo, rat; conditions: oral gavage daily 14 days, FIGS. 4 to 8; * p<0.05 vs vehicle-treated lesioned controls
# From the text: The fimbria fornix lesion model is an established protocol for assessing cholinergic neuronal survival in the basal forebrain. […] Contained within the region of the brain 10 are cholinergic neurons 16. A healthy cholinergic neuron has a cell body 18, and one or more axons 20. Each of the axons 20 have a free end, referred to as a terminal 22, that extends into the hippocampus 14. In the fimbria fornix lesion model, damaged cholinergic neurons 24 are produced by transecting a portion of the axons 20 at a location 26 between the hippocampus 14 and the cell body 18. As a result of this transection, damaged cell bodies 28 are produced that no longer have cholinergic axons 30 and terminals 32. These damaged cell bodies 28, also lose cholinergic cell body markers 34 and stop producing ChAT. The fimbria fornix lesion model is used to study methods of restoring ChAT production, such as through stimulating increased production of ChAT in the healthy cholinergic neurons, and/or through restoring normal functioning of the damaged cholinergic neurons 24.
# For the studies described herein, animals were anesthetized with pentobarbital and placed in a stereotaxic apparatus. The skull was opened on the left side, a knife was positioned 1.2 mm posterior to bregma and 0.6 mm lateral to the midline. The knife was lowered to 4.5 mm below the dura into the brain and moved laterally 2 mm partially transecting the fimbria fornix. After 14 days of administration of the test compounds by oral gavage, the hippocampus was removed and homogenized.
# as §1
# vitamin D receptor = target: T1, vitamin D receptor (Gallus gallus, UniProt O42392); assay: Vitamin D receptor binding (displacement of 3H-1α,25(OH)2D3)
# T1 sequence (O42392 1-451): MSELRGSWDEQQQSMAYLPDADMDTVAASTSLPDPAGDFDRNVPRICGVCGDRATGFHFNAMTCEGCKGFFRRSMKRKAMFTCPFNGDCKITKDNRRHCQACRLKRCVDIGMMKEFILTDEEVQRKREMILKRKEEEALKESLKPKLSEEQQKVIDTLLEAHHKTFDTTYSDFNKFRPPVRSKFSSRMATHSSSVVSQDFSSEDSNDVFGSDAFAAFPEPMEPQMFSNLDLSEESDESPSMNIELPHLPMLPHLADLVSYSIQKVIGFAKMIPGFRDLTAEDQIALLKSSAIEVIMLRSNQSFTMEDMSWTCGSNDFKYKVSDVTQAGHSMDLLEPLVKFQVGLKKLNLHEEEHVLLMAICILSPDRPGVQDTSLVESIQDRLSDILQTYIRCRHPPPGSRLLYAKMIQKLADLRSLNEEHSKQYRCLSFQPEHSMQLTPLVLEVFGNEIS
# From the text: Bound and free ^3 H-1α,25(OH2)D3 were then separated on dextran-coated charcoal, samples were centrifuged and the supernatants containing the receptor-bound ^3 H-1α,25(OH2)D3 were counted in a liquid scintillation counter.
# [3] = Calcemic activity in rats, serum calcium after 7 days oral gavage; format: in vivo, LEW/MOL female rats; conditions: for Calcium in Serum: ± S.D.; for Calcemic Activity (%): potency relative to 1α,25(OH)2 D3, rats, p.o. 7 days; for calcemic classification: summary statement
# Experimental: For determining calcemic activity, LEW/MOL female rats (130-170 g) were administered test compounds daily for 7 days by oral gavage. Control rats received the vehicle. Each group consisted of 3 rats. Blood was collected by cardiac puncture on day 7.
# NGF mRNA = assay: Induction of NGF mRNA expression in rats; format: in vivo, Sprague Dawley rats
# Experimental: Five hours after the last dose, the animals were sacrificed by decapitation. Each brain was quickly removed and chilled in ice-cold saline. The brain was cut into 2 mm thick coronal sections. Portions of the hippocampus, encompassing the CA1 region, and the medial septum were removed by punching 2 mm^3 sections using a calibrated tissue punch. Punched sections were immediately frozen on dry ice and then stored at -70° C. RNA was prepared from dissected tissue pieces.
# Punches of tissue were homogenized in […] RNAzolB™ (Bioteex Laboratories, Houston, Tex.) using a homogenizer (Tekmar, Germany) until fully homogenized and then 250 μl RNAzilB™ was added. Typically, punches from the corresponding regions of brains of 2 to 3 animals were combined together. RNA was prepared as recommended by the manufacturer (Biotecx Laboratories). Following isopropanol precipitation, RNA was reprecipitated with ethanol and finally resuspended in 25-50 μL of water. Concentration of RNA was measured spectrophotometrically and the quality of RNA was visualized on a nondenaturing agarose gel. Equal amounts of RNA, usually 1-2 μg, were reverse transcribed using Superscript II™ (Gibco BRL), as recommended by the manufacturer. The assay was terminated by incubation at 95° C. 1 min. at 55-60° C. (depending on the primer set) and 2 min. at 72° C. […] After the assay, samples were electrophoresed on 5% nondenaturing acrylamide gels. Gels were dried and the resulting labeled bands were visualized on a phosphorimager (Storm 840, Molecular Dynamics, Sunnyvale, Calif.). The following primers were used: […]
# Nerve Growth Factor (NGF). Primers were designed against the rat sequence.
# CNTF mRNA = assay: Induction of CNTF mRNA expression in rats; format: in vivo, Sprague Dawley rats
# Experimental: Young adult male Sprague Dawley rats (250-350 g) were administered Compound (A), Compound (E), or a vehicle (80% propylene glycol (human formulation grade; Spectrum Quality Products, Inc., Gardena, Calif., catalog #PR130-55003) and 20% phosphate buffer, pH 9.2) at doses ranging from 0.1 to 5.5 μg/kg daily by oral gavage for eight days. Five hours after the last dose, the animals were sacrificed by decapitation. Each brain was quickly removed and chilled in ice-cold saline. The brain was cut into 2 mm thick coronal sections. Portions of the hippocampus, encompassing the CA1 region, and the medial septum were removed by punching 2 mm^3 sections using a calibrated tissue punch. Punched sections were immediately frozen on dry ice and then stored at -70° C. RNA was prepared from dissected tissue pieces.
# Punches of tissue were homogenized in […] RNAzolB™ (Bioteex Laboratories, Houston, Tex.) using a homogenizer (Tekmar, Germany) until fully homogenized and then 250 μl RNAzilB™ was added. Typically, punches from the corresponding regions of brains of 2 to 3 animals were combined together. RNA was prepared as recommended by the manufacturer (Biotecx Laboratories). […] Concentration of RNA was measured spectrophotometrically and the quality of RNA was visualized on a nondenaturing agarose gel. […]
smiles,measurement,setting,value
"C=C1/C(=C\C=C2/CCC[C@]3(C)[C@@H]([C@@H](C)CSc4cccc(C(C)(C)O)c4)CC[C@@H]23)C[C@@H](O)C[C@@H]1O [Compound (B), 1(S),3(R)-dihydroxy-20(R)-(3-((1-hydroxy-1-methyl)ethyl)phenylthiomethyl)-9,10-seco-pregna-5(Z),7(E),10(19)-triene]",development of peripheral neuropathy,[1]; continuously pumped (mini-pump),did not prevent the development of the acrylamide-induced peripheral neuropathy
same,recovery from peripheral neuropathy,[1]; mini-pump,increased the recovery from acrylamide-induced peripheral neuropathy; also recorded: an effect upon the recovery from the lesion was apparent
same,return of landing foot spread to sham levels,[1]; mini-pump 10 ng/day,returned to sham levels by day 36
same,landing foot spread on day 40,"[1]; mini-pump 10, 100 or 1000 ng/day (FIG. 13B)",statistically significant decrease in landing foot spread
same,landing foot spread,"[1]; mini-pump, recovery period",decreased landing foot spread during the recovery period
same,serum calcium at doses giving the ChAT results,[2],low calcemic dose levels
same,hippocampal ChAT activity vs lesioned controls,hippocampal ChAT,significant increase in CHAT activity
same,Kd,vitamin D receptor,0.2 nM
same,Calcium in Serum,"[3]; 10 μg/kg/day p.o., Table 2B (vehicle 2.57 ± 0.06)",2.51 ± 0.05 mmol/L
same,Calcium in Serum,"[3]; 50 μg/kg/day p.o., Table 2B (vehicle 2.57 ± 0.06)",2.59 ± 0.02 mmol/L
same,Calcium in Serum,"[3]; 100 μg/kg/day p.o., Table 2B (vehicle 2.57 ± 0.06)",2.59 ± 0.04 mmol/L
same,Calcemic Activity (%),[3],1%
same,calcemic classification,[3],exemplary of low calcemic vitamin D3 analogues
"C=C1/C(=C\C=C2/CCC[C@]3(C)[C@@H]([C@@H](C)COc4cccc(C(C)(C)O)c4)CC[C@@H]23)C[C@@H](O)C[C@@H]1O [Compound (C), 1(S), 3(R)-dihydroxy-20(R)-[3-(2-hydroxy-2-propyl)-phenoxymethyl]-9,10-seco-pregna-5(Z),7(E),10(19)-triene]",serum calcium at doses giving the ChAT results,[2],low calcemic dose levels
same,hippocampal ChAT activity vs lesioned controls,hippocampal ChAT,significant increase in CHAT activity
same,Calcium in Serum,"[3]; 0.1 μg/kg/day p.o., Table 2C (vehicle 2.68 ± 0.03)",2.71 ± 0.07 mmol/L
same,Calcium in Serum,"[3]; 1.0 μg/kg/day p.o., Table 2C (vehicle 2.68 ± 0.03)",2.66 ± 0.06 mmol/L
same,Calcium in Serum,"[3]; 10 μg/kg/day p.o., Table 2C (vehicle 2.68 ± 0.03)",2.82 ± 0.05 mmol/L
same,Calcemic Activity (%),[3],8%
same,calcemic classification,[3],exemplary of low calcemic vitamin D3 analogues
C=C1/C(=C\C=C2/CCC[C@]3(C)[C@@H]([C@H](C)CCCCC(O)(CC)CC)CC[C@@H]23)C[C@@H](O)C[C@@H]1O [Compound (D)],serum calcium at doses giving the ChAT results,[2],low calcemic dose levels
same,hippocampal ChAT activity vs lesioned controls,hippocampal ChAT,significant increase in CHAT activity
same,Calcium in Serum,"[3]; 0.1 μg/kg/day p.o., Table 2D (vehicle 2.51 ± 0.09)",2.59 ± 0.08 mmol/L
same,Calcium in Serum,"[3]; 5.0 μg/kg/day p.o., Table 2D (vehicle 2.51 ± 0.09)",2.90 ± 0.06 mmol/L
same,Calcium in Serum,"[3]; 10 μg/kg/day p.o., Table 2D (vehicle 2.51 ± 0.09)",3.19 ± 0.16 mmol/L
same,Calcemic Activity (%),[3],20%
same,calcemic classification,[3],exemplary of low calcemic vitamin D3 analogues
C=C1/C(=C\C=C2/CCC[C@]3(C)[C@@H]([C@H](C)/C=C/C#CC(O)(CC)CC)CC[C@@H]23)C[C@@H](O)C[C@@H]1O [Compound (E)],serum calcium at doses giving the ChAT results,[2],low calcemic dose levels
same,hippocampal ChAT activity vs lesioned controls,hippocampal ChAT,significant increase in CHAT activity
same,Kd,vitamin D receptor,0.3 nM
same,production of NGF mRNA,"NGF mRNA; 0.3, 1.0, 3.0, and 5.5 μg/kg oral, 8 days, rat septum (FIG. 2A)",facilitated the production of NGF mRNA
same,dose dependence of NGF mRNA production,"NGF mRNA; 0.3-5.5 μg/kg, rat septum",generally increased with increasing dosage
same,production of CTNF mRNA,"CNTF mRNA; 0.3, 1.0, 3.0, and 5.5 μg/kg oral, 8 days, rat septum (FIG. 2B)",facilitated the production of NGF mRNA and CTNF mRNA
same,dose dependence of CTNF mRNA production,"CNTF mRNA; 0.3-5.5 μg/kg, rat septum",generally increased with increasing dosage
same,Calcium in Serum,"[3]; 0.1 μg/kg/day p.o., Table 2E (vehicle 2.51 ± 0.09)",2.41 ± 0.01 mmol/L
same,Calcium in Serum,"[3]; 1.0 μg/kg/day p.o., Table 2E (vehicle 2.51 ± 0.09)",2.42 ± 0.04 mmol/L
same,Calcium in Serum,"[3]; 10 μg/kg/day p.o., Table 2E (vehicle 2.51 ± 0.09)",2.38 ± 0.03 mmol/L
same,Calcemic Activity (%),[3],20%
same,calcemic classification,[3],exemplary of low calcemic vitamin D3 analogues
